Results: ChEMBL document CHEMBL4814018, “Rationally designed TNF-α inhibitors: Identification of promising cytotoxic agents” (Bioorg Med Chem Lett, 2021)
Active and inactive are the calls of the source. The rule behind the calls is not given here.

Key:
[1] = Therapeutic index, ratio of LC50 for human Panel NCI-60 (60 carcinoma cell lines) to GI50 for human Panel NCI-60 (60 carcinoma cell lines); assay type: functional
BV-2 [2] = test: Cytotoxicity against mouse BV2 cells incubated for 48 hrs by MTT assay; assay type: cell-based; settings: BV-2, 48 h
MCF7 [3] = test: Growth inhibition of human MCF7 cells incubated for 48 hrs by sulforhodamine B assay; assay type: functional
OVCAR-5 [4] = test: Growth inhibition of human OVCAR-5 cells at 10 uM incubated for 48 hrs by sulforhodamine B assay relative to control; assay type: functional; settings: read-out: GI
UO-31 [5] = test: Growth inhibition of human UO-31 cells incubated for 48 hrs by sulforhodamine B assay; assay type: functional
T47D [6] = test: Growth inhibition of human T47D cells incubated for 48 hrs by sulforhodamine B assay; assay type: functional
T47D [7] = test: Growth inhibition of human T47D cells at 10 uM incubated for 48 hrs by sulforhodamine B assay relative to control; assay type: functional; settings: read-out: GI
TK-10 [8] = test: Growth inhibition of human TK-10 cells at 10 uM incubated for 48 hrs by sulforhodamine B assay relative to control; assay type: functional; settings: read-out: GI
SK-MEL-2 [9] = test: Growth inhibition of human SK-MEL-2 cells incubated for 48 hrs by sulforhodamine B assay; assay type: functional
SF-295 [10] = test: Growth inhibition of human SF-295 cells at 10 uM incubated for 48 hrs by sulforhodamine B assay relative to control; assay type: functional; settings: read-out: GI
CAKI-1 [11] = test: Growth inhibition of human CAKI-1 cells incubated for 48 hrs by sulforhodamine B assay; assay type: functional
UACC-62 [12] = test: Growth inhibition of human UACC-62 cells at 10 uM incubated for 48 hrs by sulforhodamine B assay relative to control; assay type: functional; settings: read-out: GI
RPMI-8226 [13] = test: Growth inhibition of human RPMI-8226 cells incubated for 48 hrs by sulforhodamine B assay; assay type: functional; settings: dose 10 µM
UACC-62 [14] = test: Growth inhibition of human UACC-62 cells incubated for 48 hrs by sulforhodamine B assay; assay type: functional
TK-10 [15] = test: Growth inhibition of human TK-10 cells incubated for 48 hrs by sulforhodamine B assay; assay type: functional
U-251 [16] = test: Growth inhibition of human U-251 cells at 10 uM incubated for 48 hrs by sulforhodamine B assay relative to control; assay type: functional; settings: read-out: GI
OVCAR-3 [17] = test: Growth inhibition of human OVCAR-3 cells incubated for 48 hrs by sulforhodamine B assay; assay type: functional
UACC-257 [18] = test: Growth inhibition of human UACC-257 cells incubated for 48 hrs by sulforhodamine B assay; assay type: functional
NCI-H226 [19] = test: Growth inhibition of human NCI-H226 cells incubated for 48 hrs by sulforhodamine B assay; assay type: functional
OVCAR-5 [20] = test: Growth inhibition of human OVCAR-5 cells incubated for 48 hrs by sulforhodamine B assay; assay type: functional
SF-295 [21] = test: Growth inhibition of human SF-295 cells incubated for 48 hrs by sulforhodamine B assay; assay type: functional
OVCAR-3 [22] = test: Growth inhibition of human OVCAR-3 cells at 10 uM incubated for 48 hrs by sulforhodamine B assay relative to control; assay type: functional; settings: read-out: GI
HOP-92 [23] = test: Growth inhibition of human HOP-92 cells at 10 uM incubated for 48 hrs by sulforhodamine B assay relative to control; assay type: functional; settings: read-out: GI
K562 [24] = test: Growth inhibition of human K562 cells at 10 uM incubated for 48 hrs by sulforhodamine B assay relative to control; assay type: functional; settings: read-out: GI
RPMI-8226 [25] = test: Growth inhibition of human RPMI8226 cells at 10 uM incubated for 48 hrs by sulforhodamine B assay relative to control; assay type: functional; settings: read-out: GI
MDA-MB-468 [26] = test: Growth inhibition of human MDA-MB-468 cells incubated for 48 hrs by sulforhodamine B assay; assay type: functional
HOP-62 [27] = test: Growth inhibition of human HOP-62 cells at 10 uM incubated for 48 hrs by sulforhodamine B assay relative to control; assay type: functional; settings: read-out: GI
OVCAR-4 [28] = test: Growth inhibition of human OVCAR-4 cells incubated for 48 hrs by sulforhodamine B assay; assay type: functional
NCI-H460 [29] = test: Growth inhibition of human NCI-H460 cells incubated for 48 hrs by sulforhodamine B assay; assay type: functional
A498 [30] = test: Growth inhibition of human A498 cells incubated for 48 hrs by sulforhodamine B assay; assay type: functional
HCT-116 [31] = test: Growth inhibition of human HCT-116 cells incubated for 48 hrs by sulforhodamine B assay; assay type: functional
SK-OV-3 [32] = test: Growth inhibition of human SK-OV-3 cells at 10 uM incubated for 48 hrs by sulforhodamine B assay relative to control; assay type: functional; settings: read-out: GI
SW-620 [33] = test: Growth inhibition of human SW-620 cells incubated for 48 hrs by sulforhodamine B assay; assay type: functional
K562 [34] = test: Growth inhibition of human K562 cells incubated for 48 hrs by sulforhodamine B assay; assay type: functional
BV-2 [35] = test: Antiinflammatory activity against mouse BV2 cells assessed as decrease in LPS-induced NO production at 1 to 5 uM pretreated with compound followed by LPS stimulation incubated for 4 to 48 hrs by enzyme immunoassay; assay type: functional, cell-based; settings: dose 1-5 µM, time 4-48 hrs
MDA-MB-231 [36] = test: Growth inhibition of human MDA-MB-231 cells at 10 uM incubated for 48 hrs by sulforhodamine B assay relative to control; assay type: functional; settings: read-out: GI
UO-31 [37] = test: Growth inhibition of human UO-31 cells at 10 uM incubated for 48 hrs by sulforhodamine B assay relative to control; assay type: functional; settings: read-out: GI
HCT-116 [38] = test: Growth inhibition of human HCT-116 cells at 10 uM incubated for 48 hrs by sulforhodamine B assay relative to control; assay type: functional; settings: read-out: GI
MDA-MB-468 [39] = test: Growth inhibition of human MDA-MB-468 cells at 10 uM incubated for 48 hrs by sulforhodamine B assay relative to control; assay type: functional; settings: read-out: GI
IGROV-1 [40] = test: Growth inhibition of human IGROV-1 cells at 10 uM incubated for 48 hrs by sulforhodamine B assay relative to control; assay type: functional; settings: read-out: GI
U-251 [41] = test: Growth inhibition of human U-251 cells incubated for 48 hrs by sulforhodamine B assay; assay type: functional
BV-2 [42] = test: Antiinflammatory activity against mouse BV2 cells assessed as reduction in LPS-induced IL6 production at 1 uM by enzyme immunoassay; assay type: functional, cell-based
MDA-MB-231 [43] = test: Growth inhibition of human MDA-MB-231 cells incubated for 48 hrs by sulforhodamine B assay; assay type: functional
OVCAR-4 [44] = test: Growth inhibition of human OVCAR-4 cells at 10 uM incubated for 48 hrs by sulforhodamine B assay relative to control; assay type: functional; settings: read-out: GI
SK-OV-3 [45] = test: Growth inhibition of human SK-OV-3 cells incubated for 48 hrs by sulforhodamine B assay; assay type: functional
NCI-H460 [46] = test: Growth inhibition of human NCI-H460 cells at 10 uM incubated for 48 hrs by sulforhodamine B assay relative to control; assay type: functional; settings: read-out: GI
IGROV-1 [47] = test: Growth inhibition of human IGROV-1 cells incubated for 48 hrs by sulforhodamine B assay; assay type: functional
SW-620 [48] = test: Growth inhibition of human SW-620 cells at 10 uM incubated for 48 hrs by sulforhodamine B assay relative to control; assay type: functional; settings: read-out: GI
SR [49] = test: Growth inhibition of human SR cells at 10 uM incubated for 48 hrs by sulforhodamine B assay relative to control; assay type: functional; settings: read-out: GI
UACC-257 [50] = test: Growth inhibition of human UACC-257 cells at 10 uM incubated for 48 hrs by sulforhodamine B assay relative to control; assay type: functional; settings: read-out: GI
A498 [51] = test: Growth inhibition of human A498 cells at 10 uM incubated for 48 hrs by sulforhodamine B assay relative to control; assay type: functional; settings: read-out: GI
HOP-62 [52] = test: Growth inhibition of human HOP-62 cells incubated for 48 hrs by sulforhodamine B assay; assay type: functional
SK-MEL-2 [53] = test: Growth inhibition of human SK-MEL-2 cells at 10 uM incubated for 48 hrs by sulforhodamine B assay relative to control; assay type: functional; settings: read-out: GI
NCI-H226 [54] = test: Growth inhibition of human NCI-H226 cells at 10 uM incubated for 48 hrs by sulforhodamine B assay relative to control; assay type: functional; settings: read-out: GI
MCF7 [55] = test: Growth inhibition of human MCF7 cells at 10 uM incubated for 48 hrs by sulforhodamine B assay relative to control; assay type: functional; settings: read-out: GI
CAKI-1 [56] = test: Growth inhibition of human CAKI-1 cells at 10 uM incubated for 48 hrs by sulforhodamine B assay relative to control; assay type: functional; settings: read-out: GI
HOP-92 [57] = test: Growth inhibition of human HOP-92 cells incubated for 48 hrs by sulforhodamine B assay; assay type: functional
BV-2 [58] = test: Antiinflammatory activity against mouse BV2 cells assessed as inhibition of LPS-induced TNFalpha production at 1 uM by enzyme immunoassay; assay type: functional; design: scale not given: the % may be the effect or the level left
SR [59] = test: Growth inhibition of human SR cells incubated for 48 hrs by sulforhodamine B assay; assay type: functional
[60] = system: Panel NCI-60 (60 carcinoma cell lines); test: Growth inhibition of human Panel NCI-60 (60 carcinoma cell lines) incubated for 48 hrs by sulforhodamine B assay; assay type: functional
[61] = read-out: LC50 (the source's name)

## O=c1[nH]cc(F)c(=O)[nH]1 [FLUOROURACIL]
[1]
  TI: >133

## O=C1COCCN1c1ccc(N2C(=O)C(Cl)C2c2cn(Cc3ccc(Cl)cc3)c3ccccc23)cc1 (stereo not given)
BV-2 [2]
  IC50: > 10 µM

## O=C1COCCN1c1ccc(NCc2cn(Cc3ccc(Cl)cc3)c3ccccc23)cc1
MCF7 [3]
  GI50: 0.29 µM
OVCAR-5 [4]
  inhibition of growth at 10 µM: 100%
BV-2 [2]
  IC50: > 10 µM
UO-31 [5]
  GI50: 2.08 µM
T47D [6]
  GI50: 0.26 µM
T47D [7]
  inhibition of growth at 10 µM: 95%
TK-10 [8]
  inhibition of growth at 10 µM: 100%
SK-MEL-2 [9]
  GI50: 2.18 µM
SF-295 [10]
  inhibition of growth at 10 µM: 85%
CAKI-1 [11]
  GI50: 0.05 µM
CAKI-1 [11]; [61]
  CC50: > 100 µM
UACC-62 [12]
  inhibition of growth at 10 µM: 100%
RPMI-8226 [13]
  GI50: 2.1 µM
UACC-62 [14]
  GI50: 0.39 µM
TK-10 [15]
  GI50: 0.14 µM
TK-10 [15]; [61]
  CC50: > 100 µM
U-251 [16]
  inhibition of growth at 10 µM: 89%
OVCAR-3 [17]
  GI50: 1.2 µM
UACC-257 [18]
  GI50: 0.27 µM
NCI-H226 [19]
  GI50: 0.15 µM
NCI-H226 [19]; [61]
  CC50: 3.6 µM
OVCAR-5 [20]
  GI50: 0.18 µM
OVCAR-5 [20]; [61]
  CC50: 9.6 µM
SF-295 [21]
  GI50: 1.8 µM
OVCAR-3 [22]
  inhibition of growth at 10 µM: 96%
HOP-92 [23]
  inhibition of growth at 10 µM: 90%
K562 [24]
  inhibition of growth at 10 µM: 94%
RPMI-8226 [25]
  inhibition of growth at 10 µM: 95%
MDA-MB-468 [26]
  GI50: 0.1 µM
MDA-MB-468 [26]; [61]
  CC50: 0.8 µM
HOP-62 [27]
  inhibition of growth at 10 µM: 83%
OVCAR-4 [28]
  GI50: 0.48 µM
NCI-H460 [29]
  GI50: 0.26 µM
A498 [30]
  GI50: 0.03 µM
A498 [30]; [61]
  CC50: 0.4 µM
HCT-116 [31]
  GI50: 0.24 µM
SK-OV-3 [32]
  inhibition of growth at 10 µM: 91%
SW-620 [33]
  GI50: 2.2 µM
K562 [34]
  GI50: 1.8 µM
BV-2 [35]
  Activity: Active
MDA-MB-231 [36]
  inhibition of growth at 10 µM: 77%
UO-31 [37]
  inhibition of growth at 10 µM: 92%
HCT-116 [38]
  inhibition of growth at 10 µM: 96%
MDA-MB-468 [39]
  inhibition of growth at 10 µM: 100%
IGROV-1 [40]
  inhibition of growth at 10 µM: 100%
U-251 [41]
  GI50: 1.2 µM
BV-2 [42]
  Activity: Active
MDA-MB-231 [43]
  GI50: 4.5 µM
OVCAR-4 [44]
  inhibition of growth at 10 µM: 94%
SK-OV-3 [45]
  GI50: 2.29 µM
NCI-H460 [46]
  inhibition of growth at 10 µM: 93%
IGROV-1 [47]
  GI50: 0.25 µM
SW-620 [48]
  inhibition of growth at 10 µM: 73%
SR [49]
  inhibition of growth at 10 µM: 87%
UACC-257 [50]
  inhibition of growth at 10 µM: 100%
A498 [51]
  inhibition of growth at 10 µM: 100%
[1]
  TI: 34
HOP-62 [52]
  GI50: 1 µM
SK-MEL-2 [53]
  inhibition of growth at 10 µM: 89%
NCI-H226 [54]
  inhibition of growth at 10 µM: 93%
MCF7 [55]
  inhibition of growth at 10 µM: 96%
CAKI-1 [56]
  inhibition of growth at 10 µM: 100%
HOP-92 [57]
  GI50: 1.6 µM
BV-2 [58]
  Activity: 75%
SR [59]
  GI50: 3 µM
[60]
  GI50: 2.09 µM
  TGI: 25.1 µM
[60]; [61]
  CC50: 70.8 µM
